“Also recorded” adds a separate entry of the source.
Legend:
[1] = tested on: HeLa cells; assay: MTT assay for cell viability; assay type: cell-based, human
Excerpt: We characterized the activity of novel compounds in a cellular assay to establish whether there were any cytotoxic effects. We used an established MTT (3-(4,5-dimethylthiazolyl-2)-2, 5-diphenyltetrazolium bromide or thiazolyl blue) method using HELA cells to determine whether the small molecule affects cell viability. In this method, a purple formazan dye forms as a result of the cleavage of the yellow tetrazolium MTT within metabolically active cells. The resulting precipitate of the intracellular formazan can be dissolved in a detergent solution and quantified spectrophotometrically at 595 nm. We measured the cytotoxicity by incubating HELA cells in the presence of novel compounds at concentrations ranging from 1 to 100 µM for 24 h. Cell viability was measured using the MTT method after […] culture. The extent of cell death was expressed relative to a control containing DMSO. […] Therefore, as a next step we tested the effects of lead compounds on insulin catabolism using HeLa cells.
The cytotoxicity assay was performed using human cervical cancer HeLa cells. Cells were cultured at 37°C under a humidified atmosphere of 5% CO2 in medium supplemented with 10% fetal bovine serum and dispersed in replicate 96-well plates with 2.5×10^4 cells/well. Compounds were then added. After 24 hours exposure to the chemical compounds, the cell viability was determined by 3-[4,5-dimethylthiazol-2-yl]-2,5-diphenpyltetrazolium bromide (MTT) assay. The optical density (OD) of the wells was determined using ELISA plate reader at a test wavelength of 600 nm and a reference wavelength of 630 nm. Each measurement was carried out in triplicate.

[2] = tested on: HeLa cells; assay: Cell-based degradation of FITC-insulin; parameters: species or system human
Method: It was shown that HeLa cells express insulin receptor, and thus take FITC-labeled insulin inside and degrade it intracellularly, [21], [22]. First, FITC-insulin was added to the culture that contains HeLa cells and incubated for 2 hours in order to allow for sufficient uptake of FITC-insulin by HeLa cells. In order to ensure that FITC-labeled insulin is translocating into the cells through insulin uptake receptor, and that cytoplasmic IDE can degrade FITC- insulin, we conducted live cell imaging of HeLa cells, and recorded fluorescence. At various time points compounds, D3, D6, and D10, were added; and cells were washed with Hank's balanced salt solution (HBSS), the these cells were collected and lysed with appropriate buffer. After centrifugation, cell free extracts were used to measure the change in fluorescence by luminometer. […] Compound D10 increased in vivo proteolysis of FITC- insulin by about 32 fold with HeLa cells compared to control group (Fig. 3A). […] These findings are consistent with the data obtained by in vitro assay, showing enhanced degradation of insulin by D10 and D3 (Fig. 3A). […] This figure further verifies the significant increase in fluorescence observed in the presence of compound D10, which is consistent with our in vitro assay (Fig. 3B).
Cells were cultured at 37°C under a humidified atmosphere of 5% CO2 in medium supplemented with 10% fetal bovine serum. Then, FITC-insulin was added to cell medium and incubated for 2 h at 37°C. Next, compounds were loaded at different time intervals separately. Cells were washed with Hank's balanced salt solution (HBSS), then disrupted with 1× passive lysis buffer. Fluorescence was measured with a luminescence multi-label plate leader, and changes in fluorescence was imaged by fluorescence microscope at Burc Laboratory (Istanbul, Turkey).

[3] = target: T1, IDE (Homo sapiens, UniProt P14735); assay: FAβB (amyloid-β) degradation assay; assay type: biochemical
T1 construct: made in house; host or cells: E. coli BL21
T1 sequence (P14735 1-1019): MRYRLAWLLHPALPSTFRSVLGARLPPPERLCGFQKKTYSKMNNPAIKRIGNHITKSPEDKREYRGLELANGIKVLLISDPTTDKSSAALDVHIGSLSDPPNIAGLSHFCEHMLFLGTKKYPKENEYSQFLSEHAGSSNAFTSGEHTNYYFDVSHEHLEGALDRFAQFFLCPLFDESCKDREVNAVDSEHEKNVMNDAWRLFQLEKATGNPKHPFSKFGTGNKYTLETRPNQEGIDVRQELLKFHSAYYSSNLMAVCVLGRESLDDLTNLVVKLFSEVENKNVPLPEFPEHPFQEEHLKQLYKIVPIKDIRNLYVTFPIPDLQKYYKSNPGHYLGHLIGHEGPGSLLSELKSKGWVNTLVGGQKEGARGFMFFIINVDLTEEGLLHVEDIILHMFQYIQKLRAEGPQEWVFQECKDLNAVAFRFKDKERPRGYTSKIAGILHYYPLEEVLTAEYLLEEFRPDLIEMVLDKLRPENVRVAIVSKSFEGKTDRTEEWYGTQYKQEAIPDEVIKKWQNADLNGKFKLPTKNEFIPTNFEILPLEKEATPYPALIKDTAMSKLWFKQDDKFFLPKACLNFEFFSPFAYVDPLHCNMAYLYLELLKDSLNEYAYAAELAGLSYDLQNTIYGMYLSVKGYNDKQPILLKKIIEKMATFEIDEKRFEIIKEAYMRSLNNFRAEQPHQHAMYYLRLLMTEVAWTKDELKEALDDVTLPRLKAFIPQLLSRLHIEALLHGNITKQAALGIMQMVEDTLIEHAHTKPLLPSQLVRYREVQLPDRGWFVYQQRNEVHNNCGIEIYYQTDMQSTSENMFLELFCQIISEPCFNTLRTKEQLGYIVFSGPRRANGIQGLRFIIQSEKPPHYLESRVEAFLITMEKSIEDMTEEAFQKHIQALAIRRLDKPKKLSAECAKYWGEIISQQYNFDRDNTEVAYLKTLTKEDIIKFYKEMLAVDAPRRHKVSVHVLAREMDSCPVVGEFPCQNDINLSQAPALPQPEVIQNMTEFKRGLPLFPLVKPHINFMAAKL
Method: The 10 compounds given in Table 1 were subjected to further characterization and their effect was measured on the proteolytic activity of IDE using different substrates. Initially, activity assays were carried out at fixed 20 µM concentrations for all molecules to identify the effect of those compounds on IDE activity. IDE activity was quantified by monitoring the change in fluorescence for the proteolysis of fluorogenic-substrate V, FITC- insulin-bound antibody, and FAβB by recombinant human IDE purified from E.coli BL21 [6], [18], [19]. […] Also, D6 increased the amyloid-β degradation by 20% (Fig. S1C). Further, D10 enhanced IDE-mediated FITC-insulin-mAb and substrate V degradation by 290% and 65%, respectively (Fig. S1A, B). Next, an EC50 value of each molecule that enhanced IDE activity was determined with a dose response assay, where specific activity of IDE was measured with different concentrations of the lead compounds and then the plot was fit to Sigmoidal Hill-4 parameter equation. […] EC50 value for D3 on insulin degradation was approximately measured as 20 µM (Fig. S2C), whereas EC50 value for D6 on amyloid-β degradation was 2 µM (Fig. S2D). […] Among all these four compounds, D10 seems to be the potent activator of IDE, when proteolysis of insulin is considered.
This assay was performed as follows: 10 µl of 50 nM of FAβB was dissolved in a buffer which consisted of 50 mM HEPES, 100 mM NaCl, % 0,05 (v/v) bovine serum albumin, at a pH of 7.4. The reaction was initiated in a total volume of 100 µl with 20 µM drugs by adding 20 µl of 0.02 mg/ml of IDE for 2.5 h at 37°C. The reaction was stopped by adding 2 µl of 100 mM of protease inhibitor (1, 10-phenanthroline). Uncleaved FAβB was precipitated with Neutravidin- coated agarose beads by gentle rocking for 30 min. and centrifugation for 10 min at 14000 g. The supernatant was transferred to the black 96 well plates and increase in fluorescence (488 excitation, 525 emission) was measured with a multi-label plate reader.
The effect of the lead compounds on the initial rate of proteolysis of IDE was determined by measurement in fluorescence with time both in the presence and absence of the lead compounds. The kinetic data for IDE-mediated insulin, substrate V and amyloid-β degradation were plotted and fitted using SigmaPlot software (Sigmoidal, Hill, 4 parameter). For the initial rate calculations, kinetic data were fitted using SigmaPlot software (Hyperbola; Single Rectangular I, 3 Parameter).

[4] = tested on: IDE; details: bradykinin as IDE substrate; cited from earlier work

Compound	cytotoxicity at EC50 value ([1]; 2 µM)	cytotoxicity at high concentrations ([1]; 1 to 100 µM, 24 h)	effect on insulin catabolism in HeLa cells ([2]; HeLa cells pre-loaded with FITC-insulin)	permeability through cell membrane ([2]; inferred from HeLa cell assay)	increase of IDE-mediated amyloid-β degradation ([3]; 20 µM compound) [%]	effect of ATP on amyloid-β degradation in presence of compound ([3]; ATP, data not shown)	EC50 ([3]; dose response, Sigmoidal Hill 4 parameter fit) [µM]	acceleration of initial rate of amyloid-β proteolysis ([3]; presence vs absence of compound) [factor]	Km [4] [mM]
O=[N+]([O-])c1cc(Cn2c(-c3ccc(Cl)c([N+](=O)[O-])c3)nc3ccccc32)ccc1Cl [Compound D6]	not toxic	showed toxicity at higher concentrations	no effect on insulin catabolism; also recorded: does not change insulin degradation	permeable through cell membrane	20	no effect	2	1.3	
bradykinin (RPPGFSPFR; Bradykinin; UniProt P01042 381-389, looked up)									4.2

— publication PMC3280214, “Structure Based Discovery of Small Molecules to Regulate the Activity of Human Insulin Degrading Enzyme” (PLoS ONE, 2012)
